Results taken from patent US20260285857A1, “BICYCLIC AND HETEROCYCLIC AMIDE COMPOUNDS” (priority 2024, published 2026).

Test system: immunoglobulin light chain protein WIL-FL T46L
Assay: Differential scanning fluorimetry (thermal shift) assay
Format: binding
Details: Table A; temperature shift [Tm]compound-[Tm]vehicle; recombinant WIL-FL T46L

For `Cc1cc(N2CC[C@](C)(c3ccccc3)C2)cn2nc(C(=O)NC34CCC(C(C)(C)O)(C3)C4)nc12` [Compound 208], the DSF was “***** (>2.5° C.=*****)”.

`Cc1cc(N2CC[C@](C)(c3ccccc3)C2)cn2nc(C(=O)NCC34COC(C(=O)O)(C3)C4)nc12` [Compound 209] was tested, and the DSF was “***** (>2.5° C.=*****)”.

`Cc1cc(N2CC[C@](C)(c3ccccc3)C2)cn2nc(C(=O)N3C[C@H]4C[C@@H]3C4C(=O)O)nc12` (stereo partly drawn) [Compound 210] was tested, and the DSF was “***** (>2.5° C.=*****)”.

`Cc1cc(N2CC[C@](C)(c3ccccc3)C2)cn2nc(C(=O)N3C[C@@H]4C[C@H]3C4C(=O)O)nc12` (stereo partly drawn) [Compound 211] was tested, and the DSF was “***** (>2.5° C.=*****)”.

For `Cc1cc(N2CC[C@](C)(c3ccccc3)C2)cn2nc(C(=O)NC34COC(C(N)=O)(C3)C4)nc12` [Compound 212], the DSF was “***** (>2.5° C.=*****)”.

For `Cc1cc(N2CC[C@](C)(c3ccccc3)C2)cn2nc(C(=O)N3CC4CN(c5cccc(C(=O)O)n5)CC4C3)nc12` (stereo partly drawn) [Compound 213], the DSF was “***** (>2.5° C.=*****)”.

In the case of `Cc1cc(N2CC[C@](C)(c3ccccc3)C2)cn2nc(C(=O)N3CC4(CCN4C(=O)c4cccc(C(=O)O)n4)C3)nc12` [Compound 215], the DSF is reported as “***** (>2.5° C.=*****)”.

For `Cc1cc(N2CC[C@](C)(c3ccccc3)C2)cn2nc(C(=O)N3CC4(CCC4Oc4cccc(C(=O)O)n4)C3)nc12` (stereo partly drawn) [Compound 216], the DSF was “***** (>2.5° C.=*****)”.

With `Cc1cc(N2CC[C@](C)(c3ccccc3)C2)cn2nc(C(=O)NC3CN(c4cccc(C(=O)O)n4)C3)nc12` [Compound 217] the DSF was “***** (>2.5° C.=*****)”.

`Cc1cc(N2CC[C@](C)(c3ccccc3)C2)cn2nc(C(=O)N3CCC4(CCN(c5nc(C(=O)O)cs5)C4)C3)nc12` (stereo partly drawn) [Compound 218] was tested, and the DSF was “***** (>2.5° C.=*****)”.

`Cc1cc(N2CC[C@](C)(c3ccccc3)C2)cn2nc(C(=O)NC3CCCN(c4cccc(C(=O)O)n4)C3)nc12` (stereo partly drawn) [Compound 219] was tested, and the DSF was “***** (>2.5° C.=*****)”.

With `Cc1cc(N2CC[C@](C)(c3ccccc3)C2)cn2nc(C(=O)NC3COC4(CCN(c5cccc(C(=O)O)n5)C4)C3)nc12` (stereo partly drawn) [Compound 220] the DSF was “***** (>2.5° C.=*****)”.

`Cc1cc(N2CC[C@](C)(c3ccccc3)C2)cn2nc(C(=O)N3CC4(CC(Oc5cccc(C(=O)O)n5)C4)C3)nc12` [Compound 221] was tested, and the DSF was “***** (>2.5° C.=*****)”.

`Cc1cc(N2CC[C@](C)(c3ccccc3)C2)cn2nc(C(=O)N3CCC4(C3)CN(c3cccc(C(=O)O)n3)CCO4)nc12` (stereo partly drawn) [Compound 222] was tested, and the DSF was “***** (>2.5° C.=*****)”.

With `Cc1cc(N2CC[C@](C)(c3ccccc3)C2)cn2nc(C(=O)NC3CC4(C3)CN(c3ccnc(O)c3)C4)nc12` [Compound 223] the DSF was “***** (>2.5° C.=*****)”.

For `Cc1cc(N2CC[C@](C)(c3ccccc3)C2)cn2nc(C(=O)NC3CCC(c4ccc(C(=O)O)c(F)c4)CC3)nc12` (stereo partly drawn) [Compound 224], the DSF was “***** (>2.5° C.=*****)”.

For `Cc1cc(N2CC[C@](C)(c3ccccc3)C2)cn2nc(C(=O)N[C@H]3CC[C@H](c4ccc(C(=O)O)c(F)c4)CC3)nc12` [Compound 225], the DSF was “***** (>2.5° C.=*****)”.

With `Cc1cc(N2CC[C@](C)(c3ccccc3)C2)cn2nc(C(=O)NC3CCC(c4ccnc(C(=O)O)c4)CC3)nc12` (stereo partly drawn) [Compound 226] the DSF was “***** (>2.5° C.=*****)”.

In the case of `Cc1cc(N2CC[C@](C)(c3ccccc3)C2)cn2nc(C(=O)NC3CCN(c4cc(C(=O)O)ccn4)CC3)nc12` [Compound 227], the DSF is reported as “***** (>2.5° C.=*****)”.

For `Cc1cc(N2CC[C@](C)(c3ccccc3)C2)cn2nc(C(=O)NC3CCC34CN(c3cccc(C(=O)O)n3)C4)nc12` (stereo partly drawn) [Compound 228], the DSF was “***** (>2.5° C.=*****)”.

In the case of `Cc1cc(N2CC[C@](C)(c3ccccc3)C2)cn2nc(C(=O)NC3CCC(c4cccc(C(=O)O)n4)CC3)nc12` (stereo partly drawn) [Compound 229], the DSF is reported as “***** (>2.5° C.=*****)”.

`Cc1cc(N2CC[C@](C)(c3ccccc3)C2)cn2nc(C(=O)NC3CN(c4cccc(C(=O)O)n4)CCC3(C)O)nc12` (stereo partly drawn) [Compound 230] was tested, and the DSF was “***** (>2.5° C.=*****)”.

`Cc1cc(N2CC[C@](C)(c3ccccc3)C2)cn2nc(C(=O)N3CC4=C(C3)CN(c3cccc(C(=O)O)n3)C4)nc12` [Compound 231] was tested, and the DSF was “***** (>2.5° C.=*****)”.

With `Cc1cc(N2CC[C@](C)(c3ccccc3)C2)cn2nc(C(=O)NC34CC3CN(c3cccc(C(=O)O)n3)C4)nc12` (stereo partly drawn) [Compound 232] the DSF was “***** (>2.5° C.=*****)”.

For `COC(=O)c1n[nH]c(N2CCC3(CCN(C(=O)c4nc5c(C)cc(N6CC[C@](C)(c7ccccc7)C6)cn5n4)C3)C2)n1` (stereo partly drawn) [Compound 233], the DSF was “***** (>2.5° C.=*****)”.

For `Cc1cc(N2CC[C@](C)(c3ccccc3)C2)cn2nc(C(=O)N3CCC4(CCN(c5nc(C(=O)O)nn5C)C4)C3)nc12` (stereo partly drawn) [Compound 234], the DSF was “***** (>2.5° C.=*****)”.

In the case of `Cc1cc(N2CC[C@](C)(c3ccccc3)C2)cn2nc(C(=O)N3CCC4(CCN(c5nc(C(=O)O)n[nH]5)C4)C3)nc12` (stereo partly drawn) [Compound 235], the DSF is reported as “***** (>2.5° C.=*****)”.

In the case of `Cc1cc(N2CC[C@](C)(c3ccccc3)C2)cn2nc(C(=O)N3CCC4(CCN(c5ncn[nH]5)C4)C3)nc12` (stereo partly drawn) [Compound 236], the DSF is reported as “***** (>2.5° C.=*****)”.

`Cc1cc(N2CC[C@](C)(c3ccccc3)C2)cn2nc(C(=O)NC3CCN(c4ncc(S(C)(=N)=O)cn4)C3)nc12` (stereo partly drawn) [Compound 237] was tested, and the DSF was “***** (>2.5° C.=*****)”.

In the case of `Cc1cc(N2CC[C@](C)(c3ccccc3)C2)cn2nc(C(=O)NC3CCN(c4nccc(C(=O)O)n4)CC3)nc12` [Compound 238], the DSF is reported as “***** (>2.5° C.=*****)”.

`Cc1cc(N2CC[C@](C)(c3ccccc3)C2)cn2nc(C(=O)N3CCC4(CC3)CCN(c3cccc(C(=O)O)n3)C4)nc12` [Compound 239] was tested, and the DSF was “***** (>2.5° C.=*****)”.

With `Cc1cc(N2CC[C@](C)(c3ccccc3)C2)cn2nc(C(=O)N3CC4(CCN(c5cccc(C(=O)O)n5)C4)C3)nc12` [Compound 240] the DSF was “***** (>2.5° C.=*****)”.

`Cc1cc(N2CC[C@](C)(c3ccccc3)C2)cn2nc(C(=O)N3CCC4(C3)CN(c3cccc(C(=O)O)n3)C4)nc12` [Compound 241] was tested, and the DSF was “***** (>2.5° C.=*****)”.

In the case of `Cc1cc(N2CC[C@](C)(c3ccccc3)C2)cn2nc(C(=O)N3CCOC4(CCN(c5cccc(C(=O)O)n5)C4)C3)nc12` (stereo partly drawn) [Compound 242], the DSF is reported as “***** (>2.5° C.=*****)”.

`Cc1cc(N2CC[C@](C)(c3ccccc3)C2)cn2nc(C(=O)NC3CC(=O)N(c4ccnc(C(=O)O)c4)C3)nc12` (stereo partly drawn) [Compound 243] was tested, and the DSF was “***** (>2.5° C.=*****)”.

For `Cc1cc(N2CC[C@](C)(c3ccccc3)C2)cn2nc(C(=O)N3CC4CN(c5cccc(C(=O)O)n5)CC4(F)C3)nc12` (stereo partly drawn) [Compound 244], the DSF was “***** (>2.5° C.=*****)”.

In the case of `Cc1cc(N2CC[C@](C)(c3ccccc3)C2)cn2nc(C(=O)NC3CCC4(CCN(c5cccc(C(=O)O)n5)C4)C3)nc12` (stereo partly drawn) [Compound 245], the DSF is reported as “***** (>2.5° C.=*****)”.

With `Cc1cc(N2CC[C@](C)(c3ccccc3)C2)cn2nc(C(=O)N3CC4CN(c5cccc(C(=O)O)n5)CC4(O)C3)nc12` (stereo partly drawn) [Compound 246] the DSF was “***** (>2.5° C.=*****)”.

For `Cc1cc(N2CC[C@](C)(c3ccccc3)C2)cn2nc(C(=O)N3CC4C3CCCN4c3cccc(C(=O)O)n3)nc12` (stereo partly drawn) [Compound 247], the DSF was “***** (>2.5° C.=*****)”.

In the case of `Cc1cc(N2CC[C@](C)(c3ccccc3)C2)cn2nc(C(=O)N3CCC4(CCN(c5cccc(N)n5)C4)C3)nc12` (stereo partly drawn) [Compound 248], the DSF is reported as “***** (>2.5° C.=*****)”.

With `Cc1cc(N2CC[C@](C)(c3ccccc3)C2)cn2nc(C(=O)N3CC4CN(c5cccc(C(=O)O)n5)CC4(C(F)(F)F)C3)nc12` (stereo partly drawn) [Compound 249] the DSF was “***** (>2.5° C.=*****)”.

`Cc1cc(N2CC[C@](C)(c3ccccc3)C2)cn2nc(C(=O)N3Cc4nc(-c5cccc(C(=O)O)n5)oc4C3)nc12` [Compound 250] was tested, and the DSF was “***** (>2.5° C.=*****)”.

In the case of `Cc1cc(N2CCC(NC(=O)c3nc4c(C)cc(N5CC[C@](C)(c6ccccc6)C5)cn4n3)CC2)cc(C(=O)O)n1` [Compound 251], the DSF is reported as “***** (>2.5° C.=*****)”.

`Cc1cc(N2CC[C@](C)(c3ccccc3)C2)cn2nc(C(=O)N3C[C@@]4(C)CN(c5cccc(C(=O)O)n5)C[C@@]4(C)C3)nc12` [Compound 252] was tested, and the DSF was “***** (>2.5° C.=*****)”.

With `Cc1cc(N2CC[C@](C)(c3ccccc3)C2)cn2nc(C(=O)N3CCC4(CCN(c5ncno5)C4)C3)nc12` (stereo partly drawn) [Compound 253] the DSF was “***** (>2.5° C.=*****)”.

In the case of `Cc1cc(N2CC[C@](C)(c3ccccc3)C2)cn2nc(C(=O)NC3CCC(c4cccc(C(=O)O)n4)OC3)nc12` (stereo partly drawn) [Compound 254], the DSF is reported as “***** (>2.5° C.=*****)”.

In the case of `Cc1cc(N2CC[C@](C)(c3ccccc3)C2)cn2nc(C(=O)N3CC4CN(c5cccc(C(=O)O)n5)CC4(C(N)=O)C3)nc12` (stereo partly drawn) [Compound 255], the DSF is reported as “***** (>2.5° C.=*****)”.

In the case of `Cc1cc(N2CC[C@](C)(c3ccccc3)C2)cn2nc(C(=O)N3CCC4(CCN(c5ccnc(C(=O)O)c5)C4)C3)nc12` (stereo partly drawn) [Compound 257], the DSF is reported as “***** (>2.5° C.=*****)”.

For `Cc1cc(N2CC[C@](C)(c3ccccc3)C2)cn2nc(C(=O)N3CCC4(CCN(c5cccc(C(=O)O)n5)C4)C3)nc12` (stereo partly drawn) [Compound 258], the DSF was “***** (>2.5° C.=*****)”.

`Cc1cc(N2CC[C@](C)(c3ccccc3)C2)cn2nc(C(=O)N3CCOCC34CN(c3cccc(C(=O)O)n3)C4)nc12` [Compound 259] was tested, and the DSF was “***** (>2.5° C.=*****)”.

`Cc1cc(N2CC[C@](C)(c3ccccc3)C2)cn2nc(C(=O)N3CC4(CCN4Cc4cccc(C(=O)O)n4)C3)nc12` [Compound 260] was tested, and the DSF was “***** (>2.5° C.=*****)”.

In the case of `Cc1cc(N2CC[C@](C)(c3ccccc3)C2)cn2nc(C(=O)NC3CCN(c4cccc(C(=O)O)n4)CC3(C)C)nc12` (stereo partly drawn) [Compound 261], the DSF is reported as “***** (>2.5° C.=*****)”.

With `Cc1cc(N2CC[C@](C)(c3ccccc3)C2)cn2nc(C(=O)Nc3ccnc(C(=O)O)c3)nc12` [Compound 262] the DSF was “***** (>2.5° C.=*****)”.

With `COC(=O)c1cc(N2CCC(NC(=O)c3nc4c(C)cc(N5CC[C@](C)(c6ccccc6)C5)cn4n3)CC2)ccn1` [Compound 263] the DSF was “***** (>2.5° C.=*****)”.

With `Cc1cc(N2CC[C@](C)(c3ccccc3)C2)cn2nc(C(=O)NC3CCN(c4ccnc(C(=O)O)c4)CC3)nc12` [Compound 264] the DSF was “***** (>2.5° C.=*****)”.

In the case of `Cc1cc(N2CC[C@](C)(c3ccccc3)C2)cn2nc(C(=O)NC3CCN(c4cccnc4C(=O)O)CC3)nc12` [Compound 265], the DSF is reported as “***** (>2.5° C.=*****)”.

With `Cc1cc(N2CC[C@](C)(c3ccccc3)C2)cn2nc(C(=O)N3CCC4(CCN(c5ccnc(C(=O)O)n5)C4)C3)nc12` (stereo partly drawn) [Compound 266] the DSF was “***** (>2.5° C.=*****)”.
